Measurements published in patent publication US4753953A, “Pyridonecarboxylic acid derivatives and antibacterial pharmaceutical compositions thereof” (priority 1985, dated 1988).
≈ marks a conversion by molar mass, not a printed value. Read-outs that look alike come from different tables or passages of the source.

Legend:
F. varium KYA 8501 = assay: MIC, in vitro antibacterial activity (standard strains); type: cell-based; conditions: Fusobacterium varium, KYA8501; 10^6 cells/ml; Gram -; read-out: MIC
B. distasonis 8503 = assay: as above; type: cell-based; conditions: Parabacteroides distasonis, 8503; 10^6 cells/ml; Gram -; read-out: MIC
MR S. aureus KYB 623 [1] = assay: Therapeutic efficacy against systemic infections in mice, MR S. aureus KYB 623; conditions: Staphylococcus aureus, in Mus musculus, po, 1 h
[2] = system: Streptococcus pyogenes (S-8); assay: MIC, in vitro antibacterial activity (standard strains); type: cell-based; conditions: Streptococcus pyogenes; 10^6 cells/ml; Gram +; read-out: MIC
F. necrophorum S-45 = assay: as above; type: cell-based; conditions: Fusobacterium necrophorum, S45; 10^6 cells/ml; Gram -; read-out: MIC
E. coli ML 4707 [3] = assay: as above; type: cell-based, Escherichia coli; conditions: Escherichia coli, read-out: MIC
MR S. aureus KYB 623 [4] = assay: MIC of the infecting strain MR S. aureus KYB 623; type: cell-based; conditions: Staphylococcus aureus; Table 3, strain of the mouse infection
[5] = system: Proteus vulgaris IFO 3167; assay: MIC, in vitro antibacterial activity (standard strains); type: cell-based; conditions: Proteus vulgaris, IFO3167; 10^6 cells/ml; Gram -; read-out: MIC
Pst. micros UPI 5464-1 = assay: as above; type: cell-based; conditions: Parvimonas micra, UPI54641; 10^6 cells/ml; Gram +; read-out: MIC
B. fragilis 0558 = assay: as above; type: cell-based, Bacteroides fragilis; conditions: Bacteroides fragilis, 0558; 10^6 cells/ml; Gram -; read-out: MIC
S. pneumoniae S-4288 [6] = assay: MIC of the infecting strain S. pneumoniae S-4288; type: cell-based; conditions: Streptococcus pneumoniae, S4288; Table 4, strain of the mouse infection
E. coli ATCC 10536 = assay: MIC, in vitro antibacterial activity (standard strains); type: cell-based, Escherichia coli; conditions: Escherichia coli, ATCC10536; 10^6 cells/ml; Gram -; read-out: MIC
B. vulgatus KYA 29327 = assay: as above; type: cell-based; conditions: Phocaeicola vulgatus, KYA29327; 10^6 cells/ml; Gram -; read-out: MIC
[7] = system: Clostridium difficile I-E; assay: as above; type: cell-based; conditions: Clostridioides difficile; 10^6 cells/ml; Gram +
[8] = system: Serratia marcescens IID 618; assay: as above; type: cell-based; conditions: Serratia marcescens, IID618; 10^6 cells/ml; Gram -; read-out: MIC
E. coli ML 4707 [9] = assay: Therapeutic efficacy against systemic infections in mice, E. coli ML 4707; conditions: Escherichia coli, ML4707, in Mus musculus, po, 1 h
S. epidermidis IID 866 = assay: MIC, in vitro antibacterial activity (standard strains); type: cell-based; conditions: Staphylococcus epidermidis, IID866; 10^6 cells/ml; Gram +; read-out: MIC
C. ramosum = assay: as above; type: cell-based; conditions: Thomasclavelia ramosa; 10^6 cells/ml; Gram +; read-out: MIC
S. pneumoniae S-4288 [10] = assay: Therapeutic efficacy against systemic infections in mice, S. pneumoniae S-4288; conditions: Streptococcus pneumoniae, S4288, in Mus musculus, po, 1 h
[11] = system: Peptococcus magnus KY 017; assay: MIC, in vitro antibacterial activity (standard strains); type: cell-based; conditions: Finegoldia magna, KY017; 10^6 cells/ml; Gram +; read-out: MIC
[12] = system: Bacillus subtilis PCI 219; assay: as above; type: cell-based; conditions: Bacillus subtilis, PCI219; 10^6 cells/ml; Gram +; read-out: MIC
E. limosum KYA 8486 = assay: as above; type: cell-based; conditions: Eubacterium limosum, KYA8486; 10^6 cells/ml; Gram +; read-out: MIC
[13] = ML4707, 10^6 cells/ml, Gram -, Table 1

Compound | MIC (F. varium KYA 8501) [µg/mL] | MIC (B. distasonis 8503) [µg/mL] | MIC [2] [µg/mL] | MIC (F. necrophorum S-45) [µg/mL] | MIC (E. coli ML 4707 [3]; [13]) [µg/mL] | MIC [5] [µg/mL] | MIC (Pst. micros UPI 5464-1) [µg/mL] | MIC (B. fragilis 0558) [µg/mL] | MIC (E. coli ATCC 10536) [µg/mL] | MIC (B. vulgatus KYA 29327) [µg/mL] | MIC [7] [µg/mL] | MIC [8] [µg/mL] | MIC (S. epidermidis IID 866) [µg/mL] | MIC (C. ramosum) [µg/mL] | MIC [11] [µg/mL] | MIC [12] [µg/mL] | MIC (E. limosum KYA 8486) [µg/mL] | also measured
C[C@H]1CN(c2c(F)cc3c(=O)c(C(=O)O)cn(C4CC4)c3c2Cl)C[C@H]1N (relative stereo) [Example 16, 7-(cis-3-Amino-4-methyl-1-pyrrolidinyl)-8-chloro-1-cyclopropyl-6-fluoro-1,4-dihydro-4-oxo-3-quinolinecarboxylic acid] | 0.78 (≈ 2.05 µM) | 0.2 (≈ 0.527 µM) | 0.1 (≈ 0.263 µM) | 0.05 (≈ 0.132 µM) | 0.0063 (≈ 0.0166 µM) | 0.0125 (≈ 0.0329 µM) | 0.1 (≈ 0.263 µM) | 0.05 (≈ 0.132 µM) | 0.0125 (≈ 0.0329 µM) | 0.05 (≈ 0.132 µM) | 0.39 | 0.05 (≈ 0.132 µM) | 0.05 (≈ 0.132 µM) | 0.39 (≈ 1.03 µM) | 0.05 (≈ 0.132 µM) | 0.0125 (≈ 0.0329 µM) | – | ED50 (MR S. aureus KYB 623 [1]): 3.7 mg/kg; MIC (E. coli ML 4707 [3]; ML4707, Table 2, strain of the mouse infection): 0.0125 µg/mL (≈ 0.0329 µM); MIC (MR S. aureus KYB 623 [4]): 0.025 µg/mL; MIC (S. pneumoniae S-4288 [6]): 0.1 µg/mL; ED50 (E. coli ML 4707 [9]): 1 mg/kg; ED50 (S. pneumoniae S-4288 [10]): 12.1 mg/kg
CNCC1CN(c2c(F)cc3c(=O)c(C(=O)O)cn(C4CC4)c3c2F)CC1C (stereo not drawn) [Example 13, 1-Cyclopropyl-6,8-difluoro-1,4-dihydro-7-(3-methylaminomethyl-4-methyl-1-pyrrolidinyl)-4-oxo-3-quinolinecarboxylic acid] | 1.56 (≈ 3.99 µM) | 3.13 (≈ 8 µM) | 0.1 (≈ 0.255 µM) | 0.39 (≈ 0.996 µM) | 0.05 (≈ 0.128 µM) | 0.05 (≈ 0.128 µM) | 0.78 (≈ 1.99 µM) | 0.78 (≈ 1.99 µM) | 0.05 (≈ 0.128 µM) | 1.56 (≈ 3.99 µM) | 0.78 | 0.2 (≈ 0.511 µM) | 0.05 (≈ 0.128 µM) | 0.78 (≈ 1.99 µM) | ≤ 0.05 | 0.025 (≈ 0.0639 µM) | 1.56 (≈ 3.99 µM) | –
CCn1cc(C(=O)O)c(=O)c2cc(F)c(N3C[C@@H](N)[C@@H](C)C3)c(Cl)c21 (relative stereo) [Example 23, 7-(cis-3-Amino-4-methyl-1-pyrrolidinyl)-8-chloro-1-ethyl-6-fluoro-1,4-dihydro-4-oxo-3-quinolinecarboxylic acid] | 6.25 (≈ 17 µM) | 3.13 (≈ 8.51 µM) | 0.78 (≈ 2.12 µM) | 1.56 (≈ 4.24 µM) | 0.05 (≈ 0.136 µM) | 0.05 (≈ 0.136 µM) | 0.78 (≈ 2.12 µM) | 0.78 (≈ 2.12 µM) | 0.05 (≈ 0.136 µM) | 1.56 (≈ 4.24 µM) | 6.25 | 0.05 (≈ 0.136 µM) | 0.2 (≈ 0.544 µM) | 6.25 (≈ 17 µM) | 0.78 (≈ 2.12 µM) | 0.05 (≈ 0.136 µM) | 6.25 (≈ 17 µM) | –
C[C@H]1CN(c2c(F)cc3c(=O)c(C(=O)O)cn(CCF)c3c2F)C[C@H]1N (relative stereo) [Example 25, 7-(cis-b 3-Amino-4-methyl-1-pyrrolidinyl)-6,8-difluoro-1-(2-fluoroethyl)-1,4-dihydro-4-oxo-3-quinolinecarboxylic acid] | 6.25 (≈ 16.9 µM) | 6.25 (≈ 16.9 µM) | 0.78 (≈ 2.11 µM) | 3.13 (≈ 8.47 µM) | 0.05 (≈ 0.135 µM) | 0.05 (≈ 0.135 µM) | 0.78 (≈ 2.11 µM) | 3.13 (≈ 8.47 µM) | 0.05 (≈ 0.135 µM) | 6.25 (≈ 16.9 µM) | 6.25 | 0.1 (≈ 0.271 µM) | 0.39 (≈ 1.06 µM) | 25 (≈ 67.7 µM) | 1.56 (≈ 4.22 µM) | 0.1 (≈ 0.271 µM) | 6.25 (≈ 16.9 µM) | –
CCNCC1CN(c2c(F)cc3c(=O)c(C(=O)O)cn(C4CC4)c3c2Cl)CC1C (stereo not drawn) [Example 14, 8-Chloro-1-cyclopropyl-7-(3-ethylaminomethyl-4-methyl-1-pyrrolidinyl)-6-fluoro-1,4-dihydro-4-oxo-3-quinolinecarboxylic acid] | 1.56 (≈ 3.7 µM) | 0.39 (≈ 0.924 µM) | 0.05 (≈ 0.119 µM) | 0.1 (≈ 0.237 µM) | 0.05 (≈ 0.119 µM) | 0.05 (≈ 0.119 µM) | 0.39 (≈ 0.924 µM) | ≤ 0.05 | 0.025 (≈ 0.0593 µM) | ≤ 0.05 | 0.1 | 0.2 (≈ 0.474 µM) | 0.0125 (≈ 0.0296 µM) | 0.2 (≈ 0.474 µM) | ≤ 0.05 | 0.0125 (≈ 0.0296 µM) | 0.78 (≈ 1.85 µM) | –
